Experimental findings from US11066369B2, “N-(pyridin-2-yl)pyridine-sulfonamide derivatives and their use in the treatment of disease” (Novartis AG, priority 2016, dated 2021) are described below.

Counter-ions that a name gives are not always drawn.

Usually EC50 stands for the concentration that produces a half-maximal response.

For experiment [1], the target named is T1, horseradish peroxidase (HRP) tagged delF508-CFTR (Homo sapiens, UniProt P13569, DEL508-508).
T1 construct: expressed in transfected cells
T1 sequence (P13569 with tags, fused parts or gaps DEL508-508): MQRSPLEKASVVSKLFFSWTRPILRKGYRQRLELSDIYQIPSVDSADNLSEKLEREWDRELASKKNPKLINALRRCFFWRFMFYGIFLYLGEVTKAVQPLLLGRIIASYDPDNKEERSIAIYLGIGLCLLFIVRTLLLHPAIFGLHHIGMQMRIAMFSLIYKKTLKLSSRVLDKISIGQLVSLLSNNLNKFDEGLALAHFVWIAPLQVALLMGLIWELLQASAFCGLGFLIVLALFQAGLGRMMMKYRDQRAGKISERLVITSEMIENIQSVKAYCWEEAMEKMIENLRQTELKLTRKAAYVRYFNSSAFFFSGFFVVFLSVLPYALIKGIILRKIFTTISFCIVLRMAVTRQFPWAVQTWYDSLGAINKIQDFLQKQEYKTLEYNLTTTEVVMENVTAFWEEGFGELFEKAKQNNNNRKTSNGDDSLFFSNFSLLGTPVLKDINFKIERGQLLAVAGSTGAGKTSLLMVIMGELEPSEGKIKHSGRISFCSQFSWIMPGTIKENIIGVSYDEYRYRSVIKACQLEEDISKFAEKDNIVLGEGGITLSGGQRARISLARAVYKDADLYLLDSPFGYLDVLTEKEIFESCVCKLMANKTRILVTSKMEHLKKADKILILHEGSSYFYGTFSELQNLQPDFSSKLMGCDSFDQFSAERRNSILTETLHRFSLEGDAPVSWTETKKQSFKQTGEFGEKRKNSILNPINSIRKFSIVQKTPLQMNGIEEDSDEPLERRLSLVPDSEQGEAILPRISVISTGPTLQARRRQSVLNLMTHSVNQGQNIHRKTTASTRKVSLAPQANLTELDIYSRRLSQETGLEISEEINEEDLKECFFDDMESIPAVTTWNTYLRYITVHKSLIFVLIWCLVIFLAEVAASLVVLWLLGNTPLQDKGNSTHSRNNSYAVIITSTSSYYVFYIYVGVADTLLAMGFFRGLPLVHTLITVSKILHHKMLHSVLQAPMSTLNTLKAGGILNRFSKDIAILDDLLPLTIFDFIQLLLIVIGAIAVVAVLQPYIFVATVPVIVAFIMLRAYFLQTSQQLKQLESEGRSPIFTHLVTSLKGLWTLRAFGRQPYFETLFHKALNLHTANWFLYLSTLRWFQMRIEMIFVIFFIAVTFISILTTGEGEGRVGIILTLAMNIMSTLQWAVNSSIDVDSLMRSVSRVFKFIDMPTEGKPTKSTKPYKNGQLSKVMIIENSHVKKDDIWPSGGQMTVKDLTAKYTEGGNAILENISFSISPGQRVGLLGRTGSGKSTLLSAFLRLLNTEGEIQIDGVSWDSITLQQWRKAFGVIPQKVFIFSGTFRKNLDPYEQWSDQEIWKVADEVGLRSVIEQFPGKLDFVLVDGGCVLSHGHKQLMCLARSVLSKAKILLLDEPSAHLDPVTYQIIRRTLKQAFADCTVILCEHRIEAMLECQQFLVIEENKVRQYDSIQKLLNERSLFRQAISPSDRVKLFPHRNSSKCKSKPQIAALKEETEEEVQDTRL
The experiment is described as follows: Measurement of delF508-CFTR-HRP surface expression in CFBE41o- cells.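 For DelF508-CFTR-HRP Amax %: percent efficacy relative to reference corrector lumacaftor.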 It is filed as cell-based. As to conditions: delF508-CFTR-HRP surface expression, CFBE41o- cells; for Emax: read-out: DelF508-CFTR-HRP Amax %; for EC50: read-out: DelF508-CFTR-HRP EC50. The essentials: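 Surface-trafficked delF508-CFTR detected via extracellular HRP tag, read as luminescence from a membrane-impermeant substrate in CFBE41o- cells. Cells pre-induced 48h with 500 ng/mL doxycycline, then exposed 24h at 37° C to a 10-point, 3-fold dilution series from 10 μM (DMSO ≤0.5%). Triplicate dose-responses fitted logistically for EC50 after per-plate normalization; fold change versus reference compound.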

The target of another experiment is T2, delF508-CFTR (Homo sapiens, UniProt P13569, DEL508-508).
T2 construct: functional activity of the CFTR channel (Chloride ion transport) in patient derived primary human bronchial epithelial cells; host or cells: patient-derived primary human bronchial epithelial cells (delF508-CFTR)
T2 sequence (P13569 with tags, fused parts or gaps DEL508-508): as above
The experiment in a line: Measurement of delF508-CFTR functional activity in primary human bronchial epithelial cells (HBECs) using Multi-Transepithelial Clamp Circuit (MTECC-24) assay. As to conditions: primary CF HBECs; for MTECC24 CFHBEC- Amax %: test compound added 24h before assay plus potentiator, relative to reference combination (2 μM corrector + 0.5 μM potentiator); for EC50: test compound added 24h before assay, in the presence of potentiator, mean of at least two replicates, read-out: MTECC24 CFHBEC- EC50. In kind it is cell-based. From the text:
[formula] Measurement of delF508-CFTR Functional Activity in Primary Human Bronchial Epithelial Cells (HBECs) Using Multi-Transepithelial Clamp Circuit (MTECC-24) Assay
This assay measures the functional activity of the CFTR channel (Chloride ion transport) in patient derived primary human bronchial epithelial cells with forskolin activation and in the presence of the CFTR corrector/potentiator combo.
Primary human delF508-CFTR bronchial epithelial cells were purchased from Asterand and cultured according to previously established methods (Fulcher et al. (2005) Methods Mol Med 107: 183-206). Briefly, vendor supplied cells were rapidly defrosted and added to a T175 flask in 50 mL growth media (Lonza BEBM media with Lonza BEGM singlequots). Media was replaced after 24h and then cells were fed every other day until cells were 80-90% confluent, at which point cells were cryopreserved. These P1 vials were thawed at 37° C. as needed and added to T175 flasks in 50 mL growth media at 5×10^5 cells/flask. Media was replaced after 24h, and then cells were fed every other day until 80-90% confluent. Cells were lifted with 5 mL accutase at 37° C. for 5 minutes, centrifuged at 1000 rpms for 5 min (300 g), and resuspended in differentiation media (50% BEBM in DMEM, BEGM singlequots, all trans retinoic acid (5×10^−8M)). Cells were then counted and cell suspension was added to collagen coated inserts at 3×10^4 cells/insert in 0.15 mL with 0.5 mL differentiation media on the basolateral side.
Apical and basolateral media were replaced on alternate days, and following day 7 (or when confluent plus 2 days), air liquid interface was established for approximately two weeks by removal of apical media. One day prior to use on the MTECC24 system (EP-Devices, EP Design, Belgium), 0.15 mL of warmed (37° C.) PBS was added to the apical surface of the cultures and returned to humidifier (37° C., 5% CO2 incubator) for 30 min before aspirating the apical surface to remove any mucus.
Compound treatments were then prepared. Compound dilutions, typically a 10 point concentration response with 1 in 3 dilution steps, were made in 100% DMSO before dilution 1 in 1000 into differentiation medium with a final DMSO concentration of 0.1% or 0.2% for the study. Compound containing medium was then transferred into the wells of a 24 well plate at 0.5 mL per well and warmed for 30 min in a 37° C. incubator prior to transferring washed inserts into the compound containing plates. Cells were incubated in compound containing medium (basolateral only) for 24h prior to measurement in the MTECC24 system.
Following 24 hr treatment, compound dilutions were prepared again, diluted 1 in 1000 into 37° C. assay medium (F-12 Coon's modified, 20 mM HEPES pH7.4 with TRIS Base, No FCS or bicarbonate). Cells which were treated for 24h with test compound were then transferred into plates containing 0.75 mL compound treatment in assay medium (basolateral) and 0.25 mL of the compound containing assay medium was added to the apical surface. The plates were then transferred to the heated plate compartments of the MTECC24 system for 45 min prior to measurements (this can also be done in a non-CO2 37° C. humidified incubator). Basolateral temperature should not exceed 36.5° C. and apical temperature should be approximately 35.5° C.
Modulators were added sequentially as follows while the MTECC24 instrument recorded the equivalent short circuit current (Ieq):
Prior to dilution into F-12 medium the stocks are as follows:
Amiloride stock is 10 mM in H2O
Forskolin Stock is 10 mM in 100% DMSO
(S)-3-amino-6-methoxy-N-(3,3,3-trifluoro-2-hydroxy-2-methylpropyl)-5-(trifluoromethyl)picolinamide is 0.5 mM stock in 100% DMSO
INH-172 (4-[[4-Oxo-2-thioxo-3-[3-trifluoromethyl)phenyl]-5-thiazolidinylidene]methyl]benzoic acid) stock is 30 mM in 100% DMSO
The data was normalized using the median signal from wells treated with 0.1% DMSO as a baseline. […]

For `Cc1cccc(C)c1-c1nc(NS(=O)(=O)c2cccc(O[C@@H]3COC[C@@H]3O)n2)ccc1Cl` (racemic) [Example 290, rac-N-[5-chloro-6-(2,6-dimethylphenyl)pyridin-2-yl]-6-{[(3R,4S)-4-hydroxyoxolan-3-yl]oxy}pyridine-2-sulfonamide], in experiment [1], the Emax worked out at 616% and the half-maximal effective concentration (EC50) amounted to 1440 nM. Besides, at delF508-CFTR, the “MTECC24 CFHBEC- Amax %” value is recorded as 71.4% and the EC50 was found to be 46.6 nM.

As to `Cc1ccccc1-c1nc(NS(=O)(=O)c2cccc(O[C@@H]3COC[C@@H]3O)n2)ccc1C(F)(F)F` (racemic) [Example 291, rac-6-{[(3RS,4SR)-4-hydroxyoxolan-3-yl]oxy}-N-[6-(2-methylphenyl)-5-(trifluoromethyl)pyridin-2-yl]pyridine-2-sulfonamide], in experiment [1], the Emax amounted to 496% and the concentration for a half-maximal effect (EC50) was found to be 2500 nM. In addition, on delF508-CFTR, the “MTECC24 CFHBEC- Amax %” value worked out at 73.6% and the EC50 was 13.3 nM.

With `Cc1ccccc1-c1nc(NS(=O)(=O)c2cccc(O[C@@H]3COCC3(C)O)n2)ccc1C(F)(F)F` (mixture of isomers) [Example 293, rac-6-{[(3RR,4SR)-4-hydroxy-4-methyloxolan-3-yl]oxy}-N-[6-(2-methylphenyl)-5-(trifluoromethyl)pyridin-2-yl]pyridine-2-sulfonamide], in experiment [1], the Emax worked out at 590% and the concentration for a half-maximal effect (EC50) was determined as 1960 nM. Also, at delF508-CFTR, the “MTECC24 CFHBEC- Amax %” value is reported as 78.6% and the EC50 turned out to be 22 nM.

For `Cc1ccccc1-c1nc(NS(=O)(=O)c2cccc(N[C@@H]3CCNC[C@@H]3F)n2)ccc1C(F)(F)F` (relative stereo) [Example 117, 6-(((3S,4R)-3-fluoropiperidin-4-yl)amino)-N-(6-(o-tolyl)-5-(trifluoromethyl)pyridin-2-yl)pyridine-2-sulfonamide Hydrochloride], in experiment [1], the Emax stood at 264% and the EC50 stood at 2780 nM. Further, at delF508-CFTR, the “MTECC24 CFHBEC- Amax %” value is 74.7% and the concentration giving a half-maximal response (EC50) stood at 33.1 nM.

On to `Cc1ccccc1-c1nc(NS(=O)(=O)c2cccc(N[C@@H]3CCOC[C@@H]3O)n2)ccc1C(F)(F)F` (single isomer, unassigned) [Example 276], for which, in experiment [1], the Emax is 523% and the EC50 turned out to be 3200 nM. On delF508-CFTR, the “MTECC24 CFHBEC- Amax %” value is 84.7% and the half-maximal effective concentration (EC50) amounted to 18.5 nM.

Regarding `Cc1ccccc1-c1nc(NS(=O)(=O)c2cccc(N[C@H]3CCOC[C@H]3O)n2)ccc1C(F)(F)F` (single isomer, unassigned) [Example 277], in experiment [1], the Emax stood at 817% and the EC50 came out at 2010 nM. Moreover, on delF508-CFTR, the “MTECC24 CFHBEC- Amax %” value is on record as 85.1% and the EC50 was 4.6 nM.

With `Cc1ccccc1-c1nc(NS(=O)(=O)c2cccc(N[C@@H]3COCC[C@@H]3O)n2)ccc1C(F)(F)F` (single isomer, unassigned) [Example 281], in experiment [1], the Emax worked out at 680% and the EC50 stood at 2010 nM. Besides, at delF508-CFTR, the “MTECC24 CFHBEC- Amax %” value is 85.9% and the half-maximal effective concentration (EC50) was determined as 3.7 nM.

Take `Cc1ccccc1-c1nc(NS(=O)(=O)c2cccc(N[C@H]3COCC[C@H]3O)n2)ccc1C(F)(F)F` (single isomer, unassigned) [Example 282]: the half-maximal effective concentration (EC50) in experiment [1] is 1880 nM. In addition, on delF508-CFTR, the “MTECC24 CFHBEC- Amax %” value was found to be 69.6% and the EC50 came to 2.4 nM.

For `Cc1ccccc1-c1nc(NS(=O)(=O)c2cccc(O[C@@H]3COC[C@]3(C)O)n2)ccc1C(F)(F)F` (single isomer, unassigned) [Example 294], in experiment [1], the Emax was 641% and the half-maximal effective concentration (EC50) stood at 2360 nM. For the same compound, on delF508-CFTR, the “MTECC24 CFHBEC- Amax %” value is 81.9% and the concentration giving a half-maximal response (EC50) was found to be 11 nM.

Take `Cc1ccccc1-c1nc(NS(=O)(=O)c2cccc(O[C@@H]3COC[C@@]3(C)O)n2)ccc1C(F)(F)F` (single isomer, unassigned) [Example 295]: in experiment [1], the Emax amounted to 468% and the EC50 was 2030 nM. In addition, at delF508-CFTR, the “MTECC24 CFHBEC- Amax %” value turned out to be 68.7% and the EC50 was 26.1 nM.

For the compound `Cc1ccccc1-c1nc(NS(=O)(=O)c2cccc(O[C@@H]3COC[C@@H]3O)n2)ccc1C(F)(F)F` (single isomer, unassigned) [Example 296], in experiment [1], the Emax came out at 255% and the concentration for a half-maximal effect (EC50) turned out to be 3220 nM. For the same compound, at delF508-CFTR, the “MTECC24 CFHBEC- Amax %” value came out at 54.3% and the EC50 stood at 30 nM.

Take `Cc1ccc(F)cc1-c1nc(NS(=O)(=O)c2cccc(N)n2)ccc1C(F)(F)F` [Example 1, 6-amino-N-(6-(5-fluoro-2-methylphenyl)-5-(trifluoromethyl)pyridin-2-yl)pyridine-2-sulfonamide]: in experiment [1], the Emax was 867% and the EC50 came to 1780 nM. Besides, on delF508-CFTR, the “MTECC24 CFHBEC- Amax %” value worked out at 78.9% and the EC50 stood at 4 nM.

For `Cc1cccc(C)c1-c1nc(NS(=O)(=O)c2cccc(N)n2)ccc1C(F)(F)F` [Example 2, 6-amino-N-(6-(2,6-dimethylphenyl)-5-(trifluoromethyl)pyridin-2-yl)pyridine-2-sulfonamide], in experiment [1], the Emax came out at 724% and the EC50 is 967 nM. For the same compound, on delF508-CFTR, the “MTECC24 CFHBEC- Amax %” value is on record as 75.5% and the EC50 is 8 nM.

Take `Cc1cccc(C)c1-c1nc(NS(=O)(=O)c2cccc(N)n2)ccc1Br` [Example 3, 6-amino-N-(5-bromo-6-(2,6-dimethylphenyl)pyridin-2-yl)pyridine-2-sulfonamide]: in experiment [1], the Emax is 688% and the half-maximal effective concentration (EC50) came out at 1440 nM. In addition, on delF508-CFTR, the “MTECC24 CFHBEC- Amax %” value is listed as 60.3% and the concentration giving a half-maximal response (EC50) is 1.9 nM.

As for `Cc1cccc(C)c1-c1nc(NS(=O)(=O)c2ccnc(N)c2)ccc1Cl` [Example 4, 2-amino-N-(5-chloro-6-(2,6-dimethylphenyl)pyridin-2-yl)pyridine-4-sulfonamide], in experiment [1], the Emax is 632% and the EC50 amounted to 912 nM. Further, on delF508-CFTR, the “MTECC24 CFHBEC- Amax %” value was 52.0% and the EC50 came out at 40.8 nM.

As for `Cc1cccc(C)c1-c1cc(C(F)(F)F)cc(NS(=O)(=O)c2cccc(N)n2)n1` [Example 5, 6-amino-N-(6-(2,6-dimethylphenyl)-4-(trifluoromethyl)pyridin-2-yl)pyridine-2-sulfonamide], in experiment [1], the Emax stood at 629% and the EC50 is 1150 nM. Also, at delF508-CFTR, the “MTECC24 CFHBEC- Amax %” value was found to be 97.56% and the half-maximal effective concentration (EC50) is 3 nM.

Consider `Cc1ccc(F)cc1-c1nc(NS(=O)(=O)c2cccc(N)n2)ccc1Cl` [Example 6, 6-amino-N-(5-chloro-6-(5-fluoro-2-methylphenyl)pyridin-2-yl)pyridine-2-sulfonamide], for which, in experiment [1], the Emax was 612% and the 50% effective concentration (EC50) was 1510 nM. Also, on delF508-CFTR, the “MTECC24 CFHBEC- Amax %” value worked out at 61.0% and the EC50 is 13.1 nM.
